Data on 11 molecules can be found in ChEMBL document CHEMBL1201862, “PubChem BioAssay data set” (2004).

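Where inhibition never reached the appropriate level, the endpoint shown equals the highest concentration tested. Otherwise, values were interpolated linearly from a five-concentration, 48-hour dose response in 96-well plates. GI50: concentration for 50% inhibition of growth.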 Active and inactive are the calls of the source. Cut-off read from the data, not from the text of the source: active = GI50 up to about 1.1 µM and inactive = higher. Square brackets hold non-standard residues; d marks the D form. Peptide text beside a SMILES is read from it. * marks the point of attachment. X26 = COC1=CC(=O)N(C(=O)[C@@H](O*)C(C)C)[C@H]1Cc1ccccc1; Bn2Val = CC(C)[C@@H](C(=O)*)N(Cc1ccccc1)Cc1ccccc1; NMeV = CN[C@H](C(=O)O)C(C)C; dNMeA = CN[C@H](C)C(=O)O

Among the test systems are HCT-15; UACC-257; SF-295; SK-MEL-5; HL-60; SR; SK-MEL-2; SF-268; HT-29; MCF7; NCI-H23; UACC-62; OVCAR-4; HCC 2998; PC-3; SK-MEL-28; NCI-H522; Malme-3M; SN12C; HOP-92.
Common to all, as to assay: NCI-60 cell line screen, 48 h

With `CN(C)C(=O)Oc1ccc(C(=S)Nc2ccccc2)cc1`, the GI50 with HCT-15 is 97.5 µM; in the experiment with UACC-257, 34.8 µM (inactive); with SF-295, 87.7 µM (inactive); in the experiment on SK-MEL-5 it was 24 µM (inactive); in the experiment with HL-60 it was 21.6 µM (inactive); with SR, 46.8 µM (inactive). Moreover, the GI50 in the experiment with SK-MEL-2 was > 100 µM (inactive); with SF-268, > 100 µM (inactive); in the experiment on HT-29 it was 51.2 µM (inactive); with MCF7 it was 76 µM (inactive); in the experiment with NCI-H23, 28.6 µM (inactive); in the experiment with UACC-62, 35.9 µM (inactive). Further, the GI50 in the experiment on OVCAR-4 is 32.1 µM (inactive); in the experiment on HCC 2998 it was > 100 µM (inactive); in the experiment on PC-3, 96.4 µM (inactive); in the experiment with SK-MEL-28 it was 33.1 µM (inactive); with NCI-H522, 64.4 µM (inactive); in the experiment on Malme-3M, 89.3 µM (inactive).
Regarding `CCOC(=O)C(=Cc1[nH]c2ccccc2c1-c1c[nH]c2ccccc12)C(=O)OCC`, the GI50 with HCT-15 is 10.1 µM; in the experiment on UACC-257 it was 10.4 µM (inactive); in the experiment with SF-295, 12.1 µM (inactive); in the experiment on SK-MEL-5 it was 15.5 µM (inactive); in the experiment with SN12C, 15 µM (inactive); with SR it was 3.13 µM (inactive). Besides, the GI50 in the experiment on SK-MEL-2 is 11.7 µM (inactive); with SF-268, 13.3 µM (inactive); in the experiment with HT-29 it was 5 µM (inactive); in the experiment with MCF7, 4.71 µM (inactive); with NCI-H23 it was 15.3 µM (inactive); in the experiment on UACC-62 it was 4.88 µM (inactive). For the same molecule, the GI50 in the experiment with OVCAR-4 was 6.76 µM (inactive); in the experiment with HCC 2998, 11.6 µM (inactive); in the experiment on PC-3, 10.3 µM (inactive); with HOP-92 it was 11 µM (inactive); in the experiment on NCI-H522, 54.7 µM (inactive); in the experiment on Malme-3M, 18.7 µM (inactive).
Consider `O=[N+]([O-])c1cc(Cl)ccc1S(=O)(=O)c1cc(Cl)cc2c1NCCC2`, for which the GI50 in the experiment with HCT-15 is 60.7 µM; in the experiment with UACC-257, 22.4 µM (inactive); in the experiment with SF-295 it was 36.7 µM (inactive); with SK-MEL-5, 21.3 µM (inactive); in the experiment with SN12C, > 100 µM (inactive); in the experiment with HL-60, 98.4 µM (inactive). Also, the GI50 with SR is 53.5 µM (inactive); in the experiment with SK-MEL-2 it was > 100 µM (inactive); in the experiment on SF-268, 82.4 µM (inactive); with HT-29, 45.6 µM (inactive); in the experiment with MCF7 it was 37.8 µM (inactive); in the experiment on UACC-62, 29.5 µM (inactive). Also, the GI50 was > 100 µM (inactive) in the experiment on OVCAR-4; > 100 µM (inactive) in the experiment with HCC 2998; 69.8 µM (inactive) in the experiment on PC-3; 35.8 µM (inactive) in the experiment on SK-MEL-28; 54.6 µM (inactive) in the experiment on HOP-92; > 100 µM (inactive) in the experiment on Malme-3M.
As for `COc1cccc(C2c3cc4c(cc3OC(NNc3ccccc3)C2C)OCO4)c1OC` (stereo not given), the GI50 with HCT-15 was 2.18 µM; with UACC-257, 5.06 µM (inactive); in the experiment on SF-295 it was 0.678 µM (active); with SK-MEL-5, 14 µM (inactive); in the experiment on SN12C, 9.84 µM (inactive); in the experiment on HL-60, 4.05 µM (inactive). For the same molecule, the GI50 in the experiment on SR is 1.06 µM (active); with SK-MEL-2, 10.1 µM (inactive); in the experiment with SF-268, 23.1 µM (inactive); with HT-29, 12 µM (inactive); in the experiment with MCF7 it was 4.73 µM (inactive); with NCI-H23, 10.7 µM (inactive). Moreover, the GI50 with UACC-62 was 2.78 µM (inactive); in the experiment on HCC 2998, 2.29 µM (inactive); in the experiment on PC-3, 1.76 µM (inactive); in the experiment on SK-MEL-28, 24.2 µM (inactive); with NCI-H522, 2.07 µM (inactive); in the experiment on Malme-3M, 12.2 µM (inactive).
For `Cc1c2c(n(Cc3ccccn3)c1C)NN=C(C#N)S2(=O)=O`, the GI50 in the experiment on HCT-15 is more than 100 µM; in the experiment with UACC-257, > 100 µM (inactive); in the experiment with SF-295 it was > 100 µM (inactive); in the experiment with SK-MEL-5, > 100 µM (inactive); in the experiment with SN12C, > 100 µM (inactive); in the experiment with SR, > 100 µM (inactive). In addition, the GI50 in the experiment with SK-MEL-2, with SF-268, with HT-29, in the experiment on MCF7, with NCI-H23 and in the experiment with UACC-62 was > 100 µM (inactive) in each case. For the same molecule, the GI50 in the experiment with OVCAR-4, in the experiment on HCC 2998, in the experiment on PC-3, in the experiment on SK-MEL-28, in the experiment on HOP-92 and in the experiment on NCI-H522 was > 100 µM (inactive) throughout.
Turning to `CC(=O)O[C@@H]1O[Si](C(C)(C)C)(C(C)(C)C)[C@H](C)[C@H]1C`, the GI50 was 29.9 µM with HCT-15; > 100 µM (inactive) with UACC-257; 90.8 µM (inactive) in the experiment on SF-295; 26.1 µM (inactive) in the experiment with SK-MEL-5; > 100 µM (inactive) in the experiment with SN12C; 21.9 µM (inactive) with HL-60. Further, the GI50 in the experiment on SR is > 100 µM (inactive); in the experiment on SK-MEL-2, > 100 µM (inactive); in the experiment with HT-29, 18.6 µM (inactive); in the experiment with MCF7 it was 19.1 µM (inactive); in the experiment on NCI-H23, > 100 µM (inactive); with UACC-62, 83.6 µM (inactive). In addition, the GI50 with OVCAR-4 is > 100 µM (inactive); with HCC 2998, 92.7 µM (inactive); in the experiment with PC-3, 33 µM (inactive); in the experiment with SK-MEL-28 it was > 100 µM (inactive); in the experiment with NCI-H522, 56.6 µM (inactive); with Malme-3M it was 7.91 µM (inactive).
Turning to `C[C@]12CC(c3ccccc3O1)C(C#N)C(=O)N2` (stereo not given in full), the GI50 was more than 100 µM in the experiment on HCT-15; > 100 µM (inactive) in the experiment on UACC-257; > 100 µM (inactive) in the experiment on SK-MEL-5; > 100 µM (inactive) with SN12C; > 100 µM (inactive) in the experiment with HL-60; > 100 µM (inactive) with SR. Further, the GI50 in the experiment on SK-MEL-2, with SF-268, in the experiment with HT-29, in the experiment with MCF7, in the experiment with NCI-H23 and with UACC-62 was > 100 µM (inactive) in each case. For the same molecule, the GI50 in the experiment on OVCAR-4, with HCC 2998, with PC-3, in the experiment on SK-MEL-28, with HOP-92 and in the experiment with Malme-3M was > 100 µM (inactive) in each case.
`O=C([O-])C1([n+]2c(-c3ccccc3)cc(-c3ccccc3)cc2-c2ccccc2)CC1`: the GI50 is more than 100 µM in the experiment with HCT-15; 25.4 µM (inactive) with UACC-257; > 100 µM (inactive) in the experiment on SF-295; 19.6 µM (inactive) in the experiment with SK-MEL-5; > 100 µM (inactive) in the experiment with SN12C; 21.8 µM (inactive) with HL-60. Besides, the GI50 in the experiment on SR was 76.2 µM (inactive); with SF-268, 42.3 µM (inactive); in the experiment with HT-29 it was 48.8 µM (inactive); in the experiment with MCF7, 28.1 µM (inactive); in the experiment on NCI-H23, 86.9 µM (inactive); with UACC-62, 21.5 µM (inactive). Moreover, the GI50 in the experiment with OVCAR-4 is 96.8 µM (inactive); with HCC 2998, 29.3 µM (inactive); in the experiment with PC-3, 80.4 µM (inactive); with SK-MEL-28, > 100 µM (inactive); in the experiment on HOP-92, 19.8 µM (inactive); in the experiment on NCI-H522, 54.7 µM (inactive). The GI50 in the experiment with Malme-3M was 34.5 µM (inactive).
For the molecule `N#Cc1sc2c(c1OC(=O)c1ccccc1)c(=O)n(-c1ccccc1)c(=S)n2-c1ccccc1`, the GI50 is 18.2 µM in the experiment on HCT-15; 35.7 µM (inactive) in the experiment on UACC-257; 28.2 µM (inactive) in the experiment with SF-295; 15.2 µM (inactive) in the experiment with SK-MEL-5; 26.4 µM (inactive) in the experiment on SN12C; 24.4 µM (inactive) in the experiment on HL-60. In addition, the GI50 in the experiment on SR was 30.8 µM (inactive); in the experiment on SK-MEL-2, 28.6 µM (inactive); with SF-268 it was 33.5 µM (inactive); in the experiment on HT-29 it was 32.7 µM (inactive); in the experiment with MCF7, 19.2 µM (inactive); in the experiment with NCI-H23, 21.2 µM (inactive). In addition, the GI50 in the experiment on UACC-62 was 19.9 µM (inactive); in the experiment on OVCAR-4, 21.7 µM (inactive); with HCC 2998, 25.2 µM (inactive); in the experiment with PC-3 it was 19.5 µM (inactive); in the experiment on SK-MEL-28 it was 25.7 µM (inactive); with NCI-H522, 13.8 µM (inactive). Besides, the GI50 in the experiment on Malme-3M is 20.5 µM (inactive).
Consider `CCN1CCN=C2c3cc(OC)ccc3Nc3c([N+](=O)[O-])ccc1c32`, for which the GI50 in the experiment on HCT-15 is 1.21 µM; in the experiment on UACC-257, 1.83 µM (inactive); in the experiment on SF-295 it was 1.61 µM (inactive); in the experiment with SK-MEL-5, 1.17 µM (inactive); in the experiment with SN12C, 0.796 µM (active); in the experiment on HL-60, 0.516 µM (active). Moreover, the GI50 in the experiment with SR is 0.244 µM (active); in the experiment on SF-268, 0.443 µM (active); in the experiment with HT-29, 0.705 µM (active); in the experiment with MCF7, 1.28 µM (inactive); with NCI-H23, 1.35 µM (inactive); in the experiment with UACC-62, 1.39 µM (inactive). Also, the GI50 in the experiment with OVCAR-4 is 1.29 µM (inactive); in the experiment with HCC 2998, 0.78 µM (active); with PC-3, 1 µM (active); with SK-MEL-28 it was 2.32 µM (inactive); in the experiment with HOP-92, 0.622 µM (active); with Malme-3M, 0.841 µM (active).
Turning to `COC1=CC(=O)N(C(=O)[C@@H](OC(=O)[C@@H](C)N(C)C(=O)[C@@H]2CCCN2C(=O)[C@H](C(C)C)N(C)C(=O)[C@@H](NC(=O)[C@H](C(C)C)N(Cc2ccccc2)Cc2ccccc2)C(C)C)C(C)C)[C@H]1Cc1ccccc1` (Bn2Val-V[NMeV]P[dNMeA]-X26), the GI50 with HCT-15 is more than 100 µM; in the experiment on UACC-257 it was > 26.1 µM (inactive); in the experiment with SF-295 it was > 71.3 µM (inactive); with SK-MEL-5 it was 23.9 µM (inactive); in the experiment with SN12C it was > 100 µM (inactive); in the experiment on SR it was > 100 µM (inactive). The GI50 in the experiment on SK-MEL-2 is > 50.7 µM (inactive); with SF-268, > 100 µM (inactive); in the experiment on HT-29, > 100 µM (inactive); with MCF7, 8.65 µM (inactive); in the experiment on UACC-62 it was > 60.7 µM (inactive); with OVCAR-4, > 100 µM (inactive). Further, the GI50 with HCC 2998 was > 100 µM (inactive); in the experiment with PC-3, 6.3 µM (inactive); in the experiment with SK-MEL-28 it was > 100 µM (inactive); with HOP-92, > 49.3 µM (inactive); in the experiment on NCI-H522 it was > 100 µM (inactive); in the experiment on Malme-3M it was > 59.6 µM (inactive).
